Source: ChEMBL document CHEMBL5370553, “Small-molecule LRRK2 inhibitors for PD therapy: Current achievements and future perspectives” (Eur J Med Chem, 2023)

Key:
[1] = target: T1, Leucine-rich repeat serine/threonine-protein kinase 2 (Homo sapiens, UniProt Q5S007); test: Inhibition of GST-tagged recombinant human LRRK2 expressed in Insect cell using ERM as substrate measured after 1 hrs
[2] = target: T2, Leucine-rich repeat serine/threonine-protein kinase 2 (Homo sapiens, UniProt Q5S007, G2019S); test: Inhibition of GST-tagged human LRRK2 G2019S mutant expressed in Insect cell using ERM as substrate measured after 1 hrs
[3] = target: T2, Leucine-rich repeat serine/threonine-protein kinase 2; test: Inhibition of recombinant N-terminal GST-tagged human G2019S LRRK2 expressed in Sf9 insect cells using H-RLGAWRFTTLRRARQGNTKQR-OH peptide as substrate
[4] = target: T1, Leucine-rich repeat serine/threonine-protein kinase 2; test: Inhibition of recombinant N-terminal GST-tagged human LRRK2 expressed in Sf9 insect cells using H-RLGAWRFTTLRRARQGNTKQR-OH peptide as substrate
[5] = target: T1, Leucine-rich repeat serine/threonine-protein kinase 2; test: Inhibition of GST20-tagged human LRRK2 using ERM as substrate measured after 90 mins in presence of ATP by lanthascreen TR-FRET assay
[6] = target: T1, Leucine-rich repeat serine/threonine-protein kinase 2; test: Inhibition of GST20-tagged human LRRK2 by cell based assay
[7] = system: von Hippel-Lindau disease tumor suppressor/Leucine-rich repeat serine/threonine-protein kinase 2 (Homo sapiens), Q5S007+P40337 [G2019S]; test: PROTAC activity at VHL/LRRK2 G2019S mutant in human PBMC cells assessed as reduction of protein degradation measured after 24 hrs by Western blot analysis relative to control; format: cell-based
[8] = target: T3, von Hippel-Lindau disease tumor suppressor/Leucine-rich repeat serine/threonine-protein kinase 2 (Homo sapiens) (UniProt Q5S007+P40337); test: PROTAC activity at VHL/LRRK2 in human PBMC cells assessed as induction of degradation by measuring half life measured after 24 hrs by Western blot analysis; format: cell-based
[9] = target: T3, von Hippel-Lindau disease tumor suppressor/Leucine-rich repeat serine/threonine-protein kinase 2 (Homo sapiens); test: PROTAC activity at VHL/LRRK2 in human PBMC cells assessed as reduction of protein degradation measured after 24 hrs by Western blot analysis relative to control; format: cell-based
[10] = system: von Hippel-Lindau disease tumor suppressor/Leucine-rich repeat serine/threonine-protein kinase 2 (Homo sapiens), Q5S007+P40337 [G2019S]; test: PROTAC activity at VHL/LRRK2 G2019S mutant in human PBMC cells assessed as induction of degradation by measuring half life measured after 24 hrs by Western blot analysis; format: cell-based
[11] = Half life in rat; format: ADME; settings: in vivo
[12] = Oral bioavailability in rat; format: ADME, organism-based; settings: in vivo
[13] = target: T2, Leucine-rich repeat serine/threonine-protein kinase 2; test: Inhibition of LRRK2 G2019S mutant (unknown origin)
[14] = target: T1, Leucine-rich repeat serine/threonine-protein kinase 2; test: Inhibition of human LRRK2 using LRRKtide as substrate measured after 1 hrs by caliper mobility shift assay
[15] = target: T2, Leucine-rich repeat serine/threonine-protein kinase 2; test: Inhibition of human LRRK2 G2019S mutant using LRRKtide as substrate measured after 1 hrs by caliper mobility shift assay
[16] = target: Protein cereblon/Leucine-rich repeat serine/threonine-protein kinase 2 (Mus musculus, UniProt Q5S006+Q8C7D2); test: PROTAC activity at CRBN/LRRK2 in mouse RAW264.7 cells assessed as reduction of protein degradation measured after 24 hrs by Western blot analysis; format: cell-based
[17] = target: T4, von Hippel-Lindau disease tumor suppressor/Leucine-rich repeat serine/threonine-protein kinase 2 (Homo sapiens, UniProt P40337+Q5S007, G2019S); test: PROTAC activity at VHL/LRRK2 G2019S mutant in human PBMC cells assessed as reduction of protein degradation measured after 4 hrs by Western blot; format: cell-based
[18] = target: T3, von Hippel-Lindau disease tumor suppressor/Leucine-rich repeat serine/threonine-protein kinase 2 (Homo sapiens); test: PROTAC activity at VHL/LRRK2 in human PBMC cells assessed as reduction of protein degradation at 300 nM measured after 4 hrs by Western blot analysis relative to control; format: cell-based
[19] = target: T5, von Hippel-Lindau disease tumor suppressor/Leucine-rich repeat serine/threonine-protein kinase 2 (Homo sapiens, UniProt P40337+Q5S007); test: PROTAC activity at VHL/LRRK2 in human PBMC cells assessed as reduction of protein degradation measured after 24 hrs by Western blot; format: cell-based
[20] = system: von Hippel-Lindau disease tumor suppressor/Leucine-rich repeat serine/threonine-protein kinase 2 (Homo sapiens), Q5S007+P40337 [G2019S]; test: PROTAC activity at VHL/LRRK2 G2019S mutant in human PBMC cells assessed as reduction of protein degradation at 300 nM measured after 4 hrs by Western blot analysis relative to control; format: cell-based
[21] = target: T4, von Hippel-Lindau disease tumor suppressor/Leucine-rich repeat serine/threonine-protein kinase 2; test: PROTAC activity at VHL/LRRK2 G2019S mutant in human PBMC cells assessed as reduction of protein degradation measured after 24 hrs by Western blot; format: cell-based
[22] = target: T5, von Hippel-Lindau disease tumor suppressor/Leucine-rich repeat serine/threonine-protein kinase 2; test: PROTAC activity at VHL/LRRK2 in human PBMC cells assessed as reduction of protein degradation measured after 4 hrs by Western blot; format: cell-based
[23] = Oral bioavailability in mouse at 30 mg/kg measured upto 8 hrs by LC-MS/MS analysis; format: ADME, organism-based; settings: in vivo
[24] = target: Leucine-rich repeat serine/threonine-protein kinase 2 (Mus musculus, UniProt Q5S006); test: Inhibition of mouse LRRK2
[25] = Half life in mouse; format: ADME, organism-based; settings: in vivo
[26] = target: T1, Leucine-rich repeat serine/threonine-protein kinase 2; test: Inhibition of human LRRK2 measured after 60 mins by TR-FRET assay
[27] = target: T2, Leucine-rich repeat serine/threonine-protein kinase 2; test: Inhibition of human LRRK2 G2019S mutant measured after 60 mins by TR-FRET assay
[28] = Half life in CD-1 mouse at 1 mg/kg, iv; format: ADME, organism-based; settings: in vivo
[29] = Oral bioavailability in CD-1 mouse at 5 mg/kg; format: ADME, organism-based; settings: in vivo
[30] = target: T1, Leucine-rich repeat serine/threonine-protein kinase 2; test: Inhibition of LRRK2 (unknown origin)
[31] = Oral bioavailability in rat by LC-MS/MS analysis; format: ADME, organism-based; settings: in vivo
[32] = target: Dual specificity protein kinase CLK2 (Homo sapiens, UniProt P49760); test: Inhibition of CLK2 (unknown origin) by fluorescence based assay
[33] = Mean residence time in Beagle dog by LC-MS/MS analysis; format: ADME, Canis lupus familiaris; settings: in vivo
[34] = Oral bioavailability in Beagle dog by LC-MS/MS analysis; format: ADME, organism-based, Canis lupus familiaris; settings: in vivo
[35] = Mean residence time in rat by LC-MS/MS analysis; format: ADME; settings: in vivo
[36] = target: T1, Leucine-rich repeat serine/threonine-protein kinase 2; test: Inhibition of human full length LRRK2 using RLGRDKYKTLRQIRQ peptide as substrate by mass spectrometry analysis

T4 sequence (P40337 whole entry, stated change not applied): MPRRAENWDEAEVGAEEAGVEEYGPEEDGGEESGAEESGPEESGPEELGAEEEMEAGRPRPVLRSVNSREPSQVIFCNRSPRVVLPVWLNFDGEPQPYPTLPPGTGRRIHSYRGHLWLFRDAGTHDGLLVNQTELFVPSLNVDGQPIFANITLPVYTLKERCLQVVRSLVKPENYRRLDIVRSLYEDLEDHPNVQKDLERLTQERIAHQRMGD
T4 sequence (Q5S007 whole entry G2019S, stated change not applied): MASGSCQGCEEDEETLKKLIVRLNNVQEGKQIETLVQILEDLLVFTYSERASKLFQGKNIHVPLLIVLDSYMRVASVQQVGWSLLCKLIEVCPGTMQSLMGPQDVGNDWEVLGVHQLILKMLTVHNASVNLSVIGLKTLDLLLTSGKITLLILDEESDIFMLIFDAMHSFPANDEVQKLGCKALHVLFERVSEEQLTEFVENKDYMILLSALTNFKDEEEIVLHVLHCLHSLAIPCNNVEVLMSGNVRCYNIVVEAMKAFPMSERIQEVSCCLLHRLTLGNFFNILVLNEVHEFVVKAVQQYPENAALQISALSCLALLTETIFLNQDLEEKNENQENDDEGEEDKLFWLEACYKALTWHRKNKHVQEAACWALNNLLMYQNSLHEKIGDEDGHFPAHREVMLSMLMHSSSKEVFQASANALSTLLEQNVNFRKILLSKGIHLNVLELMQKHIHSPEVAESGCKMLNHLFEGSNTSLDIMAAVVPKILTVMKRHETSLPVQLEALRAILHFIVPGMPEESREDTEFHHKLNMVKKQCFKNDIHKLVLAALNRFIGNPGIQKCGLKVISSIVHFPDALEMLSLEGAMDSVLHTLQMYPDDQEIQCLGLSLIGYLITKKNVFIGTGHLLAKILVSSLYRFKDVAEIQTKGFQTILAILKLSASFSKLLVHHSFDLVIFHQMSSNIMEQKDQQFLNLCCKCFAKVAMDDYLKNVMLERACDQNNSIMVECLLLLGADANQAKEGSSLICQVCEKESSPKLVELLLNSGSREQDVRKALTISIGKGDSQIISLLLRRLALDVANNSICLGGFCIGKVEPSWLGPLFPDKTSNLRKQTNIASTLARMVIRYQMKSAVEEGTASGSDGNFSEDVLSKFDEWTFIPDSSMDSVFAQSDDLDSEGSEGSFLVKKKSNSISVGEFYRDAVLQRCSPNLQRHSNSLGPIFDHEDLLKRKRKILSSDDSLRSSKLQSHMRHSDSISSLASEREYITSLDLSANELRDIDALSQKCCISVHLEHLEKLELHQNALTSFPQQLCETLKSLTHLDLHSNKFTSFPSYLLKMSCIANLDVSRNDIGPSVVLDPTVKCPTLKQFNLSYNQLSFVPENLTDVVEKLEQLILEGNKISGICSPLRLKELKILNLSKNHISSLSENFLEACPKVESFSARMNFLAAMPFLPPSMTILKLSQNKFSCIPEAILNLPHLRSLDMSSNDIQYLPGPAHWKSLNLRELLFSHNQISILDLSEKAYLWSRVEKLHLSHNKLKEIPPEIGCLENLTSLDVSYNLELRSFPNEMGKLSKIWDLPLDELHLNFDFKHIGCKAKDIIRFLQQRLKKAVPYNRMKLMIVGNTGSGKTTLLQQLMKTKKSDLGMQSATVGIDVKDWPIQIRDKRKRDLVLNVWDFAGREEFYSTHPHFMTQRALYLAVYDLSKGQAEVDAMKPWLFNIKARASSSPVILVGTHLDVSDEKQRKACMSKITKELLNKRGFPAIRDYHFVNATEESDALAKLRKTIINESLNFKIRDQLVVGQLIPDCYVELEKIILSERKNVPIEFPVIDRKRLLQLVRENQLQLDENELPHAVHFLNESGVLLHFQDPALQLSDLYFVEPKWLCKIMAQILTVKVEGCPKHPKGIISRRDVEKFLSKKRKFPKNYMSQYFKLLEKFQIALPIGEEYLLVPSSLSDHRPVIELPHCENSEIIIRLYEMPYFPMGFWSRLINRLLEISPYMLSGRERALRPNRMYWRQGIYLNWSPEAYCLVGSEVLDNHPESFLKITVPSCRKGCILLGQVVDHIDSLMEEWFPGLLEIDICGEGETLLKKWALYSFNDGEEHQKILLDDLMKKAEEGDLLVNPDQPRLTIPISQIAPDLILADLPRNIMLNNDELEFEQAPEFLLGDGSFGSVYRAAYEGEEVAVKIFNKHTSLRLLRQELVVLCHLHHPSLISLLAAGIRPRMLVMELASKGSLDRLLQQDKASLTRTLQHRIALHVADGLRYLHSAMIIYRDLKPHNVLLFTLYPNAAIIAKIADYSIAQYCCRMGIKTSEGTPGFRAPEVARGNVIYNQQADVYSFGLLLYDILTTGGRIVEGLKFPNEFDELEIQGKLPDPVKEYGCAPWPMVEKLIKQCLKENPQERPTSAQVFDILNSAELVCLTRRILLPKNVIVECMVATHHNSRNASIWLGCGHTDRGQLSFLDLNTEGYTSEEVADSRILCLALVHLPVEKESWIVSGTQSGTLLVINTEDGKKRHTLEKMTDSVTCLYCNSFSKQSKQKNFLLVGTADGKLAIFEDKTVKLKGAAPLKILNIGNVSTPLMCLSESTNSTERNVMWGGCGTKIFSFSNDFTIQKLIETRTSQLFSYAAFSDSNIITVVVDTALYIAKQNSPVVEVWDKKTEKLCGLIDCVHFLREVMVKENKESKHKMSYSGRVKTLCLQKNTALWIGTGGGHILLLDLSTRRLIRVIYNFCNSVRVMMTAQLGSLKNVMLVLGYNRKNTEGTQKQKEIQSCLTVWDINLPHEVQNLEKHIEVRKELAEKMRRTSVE
T3 sequence (P40337 whole entry, looked up): as the sequence (P40337 whole entry, stated change not applied) above
T3 sequence (Q5S007 whole entry, looked up): as the sequence (Q5S007 whole entry G2019S, stated change not applied) above, with S2019G counted along it
T2 sequence (Q5S007 whole entry G2019S): as the sequence (Q5S007 whole entry G2019S, stated change not applied) above
T5 sequence (Q5S007 whole entry): as the sequence (Q5S007 whole entry G2019S, stated change not applied) above, with S2019G counted along it
T5 sequence (P40337 whole entry): as the sequence (P40337 whole entry, stated change not applied) above
T1 sequence (Q5S007 whole entry): as the sequence (Q5S007 whole entry G2019S, stated change not applied) above, with S2019G counted along it
Sequence of Dual specificity protein kinase CLK2 (P49760 whole entry): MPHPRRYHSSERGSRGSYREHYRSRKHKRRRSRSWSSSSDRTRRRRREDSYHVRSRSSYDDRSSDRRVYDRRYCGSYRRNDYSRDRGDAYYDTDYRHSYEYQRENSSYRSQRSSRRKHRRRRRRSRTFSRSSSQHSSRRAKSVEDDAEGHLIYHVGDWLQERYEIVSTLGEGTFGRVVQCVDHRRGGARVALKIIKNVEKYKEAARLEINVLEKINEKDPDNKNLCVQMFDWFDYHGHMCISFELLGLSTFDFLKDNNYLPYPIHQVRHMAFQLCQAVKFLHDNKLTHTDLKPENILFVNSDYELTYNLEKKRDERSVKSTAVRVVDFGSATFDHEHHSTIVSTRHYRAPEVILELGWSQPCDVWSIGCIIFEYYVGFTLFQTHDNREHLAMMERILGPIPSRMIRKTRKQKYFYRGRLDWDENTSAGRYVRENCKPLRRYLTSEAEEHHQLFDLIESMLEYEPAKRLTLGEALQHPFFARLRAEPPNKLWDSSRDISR

`Cn1cc(-c2c[nH]c3ncnc(N4CCOCC4)c23)cc1C#N` gave an IC50 [1] of 0.013 µM and an IC50 [2] of 0.00637 µM.
Work on `CCC(Sc1ccc2nnc(-c3cccs3)n2n1)C(=O)N1CCCCC1` (stereo not given) yielded an IC50 [3] of 0.075 µM and an IC50 [4] of 0.146 µM.
With `CC(C)(O)[C@@H]1CCN(c2cnc(C(F)(F)F)c(NC(=O)c3cccc(-c4cnn(CC(F)(F)F)c4)n3)c2)C1` the IC50 [5] was 0.01 µM and the IC50 [6] was 0.0007 µM.
With `CNc1nc(Nc2ccc(C(=O)N3CCN(CCOCCOCCSC(C)(C)[C@H](NC(=O)C4(F)CC4)C(=O)N4C[C@H](O)C[C@H]4C(=O)NCc4ccc(-c5scnc5C)cc4)CC3)cc2OC)ncc1Cl` the Emax [7] was 58%, the T1/2 [8] was 5.1 h and the Emax [9] was 51%. It also gave a T1/2 [10] of 1.4 h.
`CCNc1nc(Nc2cc(F)c(C(=O)N3CCOCC3)cc2OC)ncc1C(F)(F)F` showed a half-life [11] of 3.1 h, a bioavailability [12] of 40% and an IC50 [13] of 0.001 µM.
For `CNc1nc(N/N=C/c2cccc3ccccc23)nc(Nc2cccc(C(F)(F)F)c2)n1`, the IC50 [14] was 0.424 µM and the IC50 [15] was 0.378 µM.
For `CCNc1nc(Nc2cc(F)c(C(=O)NCCCCNc3cccc4c3C(=O)N(C3CCC(=O)NC3=O)C4=O)cc2OC)ncc1C(F)(F)F` (stereo not given), the IC50 [16] was 0.0147 µM.
Work on `CNc1nc(Nc2ccc(C(=O)N3CCN(C[C@H]4CC[C@H](CSC(C)(C)[C@H](NC(=O)C5(F)CC5)C(=O)N5C[C@H](O)C[C@H]5C(=O)NCc5ccc(-c6scnc6C)cc5)CC4)CC3)cc2OC)ncc1Cl` yielded an EC50 [17] of 0.014 µM, an Emax [18] of 82% and an IC50 [19] of 0.0124 µM. The T1/2 [8] was 1.2 h, the T1/2 [10] was 0.6 h and the Emax [20] was 81%. For the same molecule, the IC50 [21] was 0.0243 µM, the EC50 [22] was 0.032 µM and the bioavailability [23] was 15%.
For `CCOc1cc(N2CCOCC2)ccc1Nc1ncc(F)c(Nc2ccccc2NS(C)(=O)=O)n1`, the IC50 [24] was 0.19 µM.
With `Cn1cc(-c2cccc(C(=O)Nc3cc(N4CC[C@@H](C(C)(C)O)C4)cnc3C(F)(F)F)n2)cn1` the IC50 [5] was 0.017 µM and the IC50 [6] was 0.021 µM.
In the case of `COc1cc(C(=O)N2CCC(N3CCN(C)CC3)CC2)ccc1Nc1ncc2c(n1)N(C)c1ccccc1C(=O)N2C`, the half-life [25] is reported as 4.5 h.
`Cn1cc(-c2nc(C(=O)Nc3cnn(C4CCC4)c3)cs2)cn1` showed an IC50 [5] of 0.014 µM and an IC50 [6] of 0.271 µM.
Molecule `COc1cc(N2CCOCC2)ccc1Nc1ncc(F)c(Nc2ccccc2NS(C)(=O)=O)n1` has an IC50 [26] of 0.00476 µM, an IC50 [27] of 0.00687 µM and a half-life [28] of 1 h. The bioavailability [29] was 133%.
`C=CC(=O)Nc1cccc(Oc2nc(Nc3ccc(N4CCN(C)CC4)c(F)c3)nc3[nH]ccc23)c1` [ABIVERTINIB] showed an IC50 [30] of 0.177 µM and an IC50 [13] of 0.41 µM.
In the case of `CC(C)Nc1nc(Nc2ccc(C(=O)NCc3ccccc3)cc2)nc2ccsc12`, the IC50 [30] is reported as 0.03 µM and the IC50 [13] is reported as 0.014 µM.
`COc1cc(N2CCOCC2)ccc1Nc1ncc(Cl)c(Nc2ccccc2NS(C)(=O)=O)n1` showed an IC50 [26] of 0.00128 µM and an IC50 [27] of 0.00185 µM.
`CNc1nc(Nc2ccc(C(=O)N3CCN(C[C@H]4CC[C@@H](CSC(C)(C)[C@H](NC(=O)C5(F)CC5)C(=O)N5C[C@H](O)C[C@H]5C(=O)NCc5ccc(-c6scnc6C)cc5)CC4)CC3)cc2OC)ncc1Cl` showed an EC50 [17] of 0.007 µM, an Emax [18] of 59% and a T1/2 [8] of 2.7 h. For the same molecule, the T1/2 [10] was 1.4 h, the Emax [20] was 90% and the EC50 [22] was 0.032 µM.
With `Cn1cc(-c2cccc(C(=O)Nc3cc(N4CCC(C(C)(C)O)C4)ncc3C(F)(F)F)n2)cn1` (stereo not given) the bioavailability [31] was 16%, the IC50 [5] was 0.001 µM and the IC50 [6] was 0.0025 µM. For the same molecule, the IC50 [32] was 0.063 µM, the MRT [33] was 3.6 h and the bioavailability [34] was 43%. For the same molecule, the MRT [35] was 5.2 h.
In the case of `Cc1c2c(nn1C1CCOCC1)OCCCNc1nc(ncc1Cl)N2`, the IC50 [36] is reported as ≤ 0.1 µM.
